In data set [1] the test system is Human skMC. As to the kind of experiment: cAMP response in primary human skeletal muscle cells (differentiated skeletal myotubes). The following applies: read-out: Primary cells; for EC50: cAMP response EC50 Human skMC, differentiated skeletal myotubes; for Emax: cAMP response Emax % Human skMC.
For data set [2], the target named is T1, human 5-HT2C receptor (Homo sapiens, UniProt P28335).
T1 construct: purchased Biosignal Packard, USA; host or cells: CHO cell membranes
T1 sequence (P28335 33-458): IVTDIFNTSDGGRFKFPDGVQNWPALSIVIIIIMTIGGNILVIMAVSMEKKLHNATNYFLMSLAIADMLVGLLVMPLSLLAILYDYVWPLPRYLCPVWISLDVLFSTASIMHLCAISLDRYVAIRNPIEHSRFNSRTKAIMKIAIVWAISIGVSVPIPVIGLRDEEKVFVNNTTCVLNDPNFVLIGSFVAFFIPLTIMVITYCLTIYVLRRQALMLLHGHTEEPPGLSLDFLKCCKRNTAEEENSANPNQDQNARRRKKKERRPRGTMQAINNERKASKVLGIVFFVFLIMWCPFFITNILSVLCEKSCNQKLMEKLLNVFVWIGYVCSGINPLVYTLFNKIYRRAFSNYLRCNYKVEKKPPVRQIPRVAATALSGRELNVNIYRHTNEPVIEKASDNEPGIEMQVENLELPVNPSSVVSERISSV
As to the kind of experiment: 3H-Mesulergine binding to hr5-HT2C CHO cell membranes. The following applies: 3H-Mesulergine 1 nM, kind of constant not stated. How it is done:
Non-specific binding is evaluated in the presence of 1 µM Mesulergine. Fifty µL each of membrane, ligand and compound in a total volume of 250 µL are incubated in 96-well plates for 60 min at 22° C in a buffer containing 50 mM Tris, 0.1% ascorbic acid, 10 µM Pargyline, pH 7.7. The plates are filtrated, washed 3 times in ice-cold 50 mM Tris, dred and measured in Topcount.

Data set [3] addresses β2 AR (Homo sapiens, UniProt P07550). In words: cAMP functional assay in CHO cells stably transfected with human β2 adrenoceptor (Test 1). The note with it: for Emax: CHO, read-out: CHO cells Emax % β2 AR, cAMP, compared to isoprenaline; for EC50: CHO cells EC50 β2 AR, cAMP, CHO cells stably transfected with human β2 adrenoceptor.
Data set [4] concerns the target T2, Serotonin 5-HT2C (Homo sapiens, UniProt P28335).
T2 construct: expressed in transfected cells; host or cells: CHO-K1 coexpressing mitochondrial apoaequorin and Gα16
T2 sequence (P28335 33-458): T1 sequence (P28335 33-458)
As to the kind of experiment: Aequorin agonist assay in CHO-K1 cells expressing recombinant Serotonin 5-HT2Cne and Gα16. The class given is cell-based. The note with it: for Emax: CHO-K1, percentage of the activity of the reference agonist at its EC100.

Data set [5] has as its target β1 AR (Homo sapiens, UniProt P08588). In words: cAMP functional assay in CHO cells stably transfected with human β1 adrenoceptor (Test 1). The note with it: for Emax: CHO, read-out: CHO cells Emax % β1 AR.
Data set [6] in a line: Comparative solubility in H2O with pH adjustment by HCl or NaOH. The note with it: water, read-out: solubility in H2O, Conc. The class given is physicochemical. How it is done: The relative solubilities of the free base form and the acetate and glycolate salt forms of Compound A were analysed and the results are show in the table below. Solutions were titrated with addition of HCl or NaOH for pH adjustment. The improved aqueous solubilities of the acetate and glycolate salt forms relative to the free base form of Compound A make the acetate and glycolate salts of Compound A more suitable for subcutaneous injection or infusion.

Data set [7] can be described thus: Steady state plasma concentration in the rat minipump study. The class given is in vivo, Male Wistar Han IGS rats. The following applies: rats. Here is the method:
Rats were acclimated to the facility for 7 days. […] Food and water were provided ad libitum. […] Body weights were measured twice per week. […] Brain weight was used for normalization of organ weights. Results are expressed as mean +/-SEM.

Data set [8] deals with Rat cardiomyocytes. In words: cAMP response in primary rat cardiomyocytes. The note with it: Cardiomyocyte.
Data set [9] has as its system Rat skMC. In words: cAMP response in primary rat skeletal muscle cells.
Data set [10] concerns Sino-Atrial node. As to the kind of experiment: Sino-Atrial node beating rate in isolated rabbit right atrium. Set-up: species or system New Zealand white female rabbits. The note with it: n=6.
Data set [11] relates to rats. As to the kind of experiment: Heart rate in rats after s.c. bolus. The class given is in vivo, Wistar Han (W-H) IGS rats. The note with it: up to 0.3 mg/kg, Figures 3a-3c. An excerpt: Wistar Han (W-H) IGS (International Genetic Standard) rats (Crl:WI(Han)) were purchased from Charles River Laboratories. Femoral arterial and venous catheters were chronically implanted and exteriorized through a spring tether-swivel system and housed in specialized cages. Arterial catheter was connected to a pressure transducer to continuously measure pulse pressure, mean arterial pressure and heart rate, which was derived from the blood pressure signal, via a digital data acquisition system. Compounds were administered via s.c catheter implanted through the skin buttun. Values are expressed as means ± SEM (n=3).

Data set [12] has as its target T3, α1A AR (Homo sapiens, UniProt P35348).
T3 construct: host or cells: CHO-K1
T3 sequence (P35348 1-466): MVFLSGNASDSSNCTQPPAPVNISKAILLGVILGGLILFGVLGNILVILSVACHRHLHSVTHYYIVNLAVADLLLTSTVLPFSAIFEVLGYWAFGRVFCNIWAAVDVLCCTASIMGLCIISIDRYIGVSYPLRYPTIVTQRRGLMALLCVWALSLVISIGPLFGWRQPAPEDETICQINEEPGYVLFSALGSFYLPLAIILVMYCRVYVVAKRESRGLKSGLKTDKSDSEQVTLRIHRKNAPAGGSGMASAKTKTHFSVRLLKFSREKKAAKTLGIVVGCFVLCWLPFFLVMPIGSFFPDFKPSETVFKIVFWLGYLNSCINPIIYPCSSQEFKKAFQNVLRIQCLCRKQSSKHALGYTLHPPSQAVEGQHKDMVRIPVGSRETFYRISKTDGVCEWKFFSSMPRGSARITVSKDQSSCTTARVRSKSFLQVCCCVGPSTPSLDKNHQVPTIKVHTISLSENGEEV
As to the kind of experiment: Ca2+ FLIPR assay in human adrenergic Alpha1A CHO-K1 cell line (Test 1). The class given is cell-based. The following applies: summary in words.

The test system of data set [13] is skeletal muscle and heart. The following applies: rats.
Data set [14] deals with isolated Langendorff perfused rabbit hearts. As to the kind of experiment: Automaticity in isolated Langendorff perfused rabbit hearts.
Data set [15] relates to Rhesus monkeys. In words: Heart rate in rhesus monkeys after single s.c. administration. The class given is in vivo. The following applies: s.c. bolus, up to 0.03 mg/kg, Figures 4a, 4b. Here is the method: Rhesus monkeys, 24 females with body weight around 4 to 8 kg, were randomized into 4 groups of n=6. The animals were restrained on a chair up to 4 hours after single subcutaneous administration of compounds, and then returned to their pens. Heart rates were measured using a Surgivet V3304 device. Values are expressed as means ± SEM (n=6).

Data set [16] concerns the target Adrenergic beta1 (Cavia porcellus, UniProt H0W3H1). As to the kind of experiment: Left atrium contraction assay (Ricerca, Adrenergic beta1). Details: species or system Dunkin Hartley Guinea pig.
The mark [17] stands for this setting: Homo sapiens, Myotube, compared to formoterol.

The results in this text go back to patent EP2890687B1, “SALTS OF BENZOTHIAZOLONE COMPOUND AS BETA-2-ADRENOCEPTOR AGONIST” (priority 2012, dated 2014).

As a reminder, the solubility is the dissolved amount per volume that the medium holds.

The structures appear in SMILES notation. Converted amounts (≈) assume the structure as drawn. Read-outs that look alike come from different tables or passages of the source. A value given as a limit tells only on which side of the number the result lay.

Sequence of β2 AR (P07550 whole entry): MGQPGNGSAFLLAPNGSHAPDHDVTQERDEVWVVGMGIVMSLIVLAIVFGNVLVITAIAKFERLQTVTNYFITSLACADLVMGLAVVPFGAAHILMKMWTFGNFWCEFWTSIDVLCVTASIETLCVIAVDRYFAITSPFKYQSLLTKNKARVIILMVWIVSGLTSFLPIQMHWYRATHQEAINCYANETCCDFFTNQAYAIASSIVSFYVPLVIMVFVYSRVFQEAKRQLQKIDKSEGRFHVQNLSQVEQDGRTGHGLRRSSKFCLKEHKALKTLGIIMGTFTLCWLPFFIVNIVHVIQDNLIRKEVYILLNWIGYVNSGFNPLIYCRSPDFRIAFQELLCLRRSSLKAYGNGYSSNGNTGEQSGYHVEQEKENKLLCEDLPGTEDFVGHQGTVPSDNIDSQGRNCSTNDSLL
Sequence of β1 AR (P08588 whole entry, the tested form may be a part): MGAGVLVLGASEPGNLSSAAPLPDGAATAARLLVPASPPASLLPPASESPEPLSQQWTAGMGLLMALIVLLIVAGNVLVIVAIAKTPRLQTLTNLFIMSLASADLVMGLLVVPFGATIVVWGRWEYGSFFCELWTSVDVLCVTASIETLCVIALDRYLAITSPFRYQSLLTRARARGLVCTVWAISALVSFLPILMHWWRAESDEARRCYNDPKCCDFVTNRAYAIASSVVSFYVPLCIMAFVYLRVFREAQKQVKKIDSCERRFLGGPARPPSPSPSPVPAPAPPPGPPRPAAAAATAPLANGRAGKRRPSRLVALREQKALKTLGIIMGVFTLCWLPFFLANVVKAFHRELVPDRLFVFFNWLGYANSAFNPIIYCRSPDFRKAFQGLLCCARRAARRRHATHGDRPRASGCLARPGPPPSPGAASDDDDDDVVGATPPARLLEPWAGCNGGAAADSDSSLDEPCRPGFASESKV
Sequence of Adrenergic beta1 (H0W3H1 1-470): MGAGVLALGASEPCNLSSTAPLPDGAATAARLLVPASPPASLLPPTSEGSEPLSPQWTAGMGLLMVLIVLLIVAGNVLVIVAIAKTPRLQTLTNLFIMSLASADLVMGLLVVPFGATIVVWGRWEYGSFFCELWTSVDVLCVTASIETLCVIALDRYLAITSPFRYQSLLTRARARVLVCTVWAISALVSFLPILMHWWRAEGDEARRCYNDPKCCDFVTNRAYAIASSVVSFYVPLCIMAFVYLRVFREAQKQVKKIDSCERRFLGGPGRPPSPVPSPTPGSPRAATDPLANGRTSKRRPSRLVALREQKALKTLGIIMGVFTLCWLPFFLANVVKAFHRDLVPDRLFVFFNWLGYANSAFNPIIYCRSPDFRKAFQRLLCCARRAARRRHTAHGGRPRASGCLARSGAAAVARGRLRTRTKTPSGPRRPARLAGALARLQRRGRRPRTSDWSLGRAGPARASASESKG

For the compound `CCCCOc1ccc(CC(C)(C)NCC(O)c2cc(O)cc3[nH]c(=O)sc23)cc1` (racemic) [Compound A/B], the EC50 in [1] (Homo sapiens, Myotube) is 0.63 nM. The Emax in [1] (setting [17]) was 100%; in [3], 87%; in data set [4] it was 113%; in [5] it was 38%. The “Serotonin 5-HT2C Binding” value in data set [2] is on record as 1.7 µM.
For the compound `CC(=O)O.CCCCOc1ccc(CC(C)(C)NC[C@H](O)c2cc(O)cc3[nH]c(=O)sc23)cc1` [Compound A (R) acetate salt, (R)-7-(2-(1-(4-butoxyphenyl)-2-methylpropan-2-ylamino)-1-hydroxyethyl)-5-hydroxybenzo[d]thiazol-2(3H)-one acetate salt], in data set [1] (Homo sapiens, Myotube, compared to isoprenaline), the Emax worked out at 93%. The EC50 in [1] (acetate salt) is 1.7 nM; in [3], 2.5 nM. For the same compound, the solubility in data set [6] (aqueous buffer, pH 6.0) was determined as 1110 µg/mL; in data set [6] (pH 5.9, aqueous buffer) it was 1330 µg/mL; in data set [6] (pH 6.1, aqueous buffer), 1100 µg/mL; in [6] (pH 6.2, aqueous buffer) it was 550 µg/mL.
Turning to `CCCCOc1ccc(CC(C)(C)NC[C@H](O)c2cc(O)cc3[nH]c(=O)sc23)cc1.O=C(O)CO` [Compound A glycolate salt, (R)-7-(2-(1-(4-butoxyphenyl)-2-methylpropan-2-ylamino)-1-hydroxyethyl)-5-hydroxybenzo[d]thiazol-2(3H)-one glycolate salt], the solubility in [6] (pH 5.1, aqueous buffer) was 13100 µg/mL; in data set [6] (pH 5.3, aqueous buffer), 6390 µg/mL; in data set [6] (pH 5.4, aqueous buffer), 4470 µg/mL.
As to `CCCCOc1ccc(CC(C)(C)NC[C@H](O)c2cc(O)cc3[nH]c(=O)sc23)cc1` [Compound A, (R)-7-(2-(1-(4-butoxyphenyl)-2-methylpropan-2-ylamino)-1-hydroxyethyl)-5-hydroxybenzo[d]thiazol-2(3H)-one], in data set [7] (0.01 mg/kg/day s.c. minipump), the “steady state plasma concentration” value was ~ 0.2 nM. Also, the steady state concentration in [7] (0.1 mg/kg/day s.c. minipump) is ~ 2 nM. Besides, the Emax in data set [1] (setting [17]) came to 96%; in data set [8] (read-out: Primary cells, cAMP response Emax % Rat cardiomyocytes), 71%; in data set [9] (read-out: Primary cells, cAMP response Emax % Rat skMC), 98%; in data set [3] it was 88%; in [4] it was 83%; in data set [5] it was 32%. The EC50 was 0.7 nM in data set [1] (listed as Compound A (R)); 5.7 nM in data set [8] (read-out: Primary cells, cAMP response EC50 Rat cardiomyocytes); 3.4 nM in data set [9] (Myotube, read-out: Primary cells, cAMP response EC50 Rat skMC); 5.6 nM in data set [3]; 280 nM in [4] (agonist mode, aequorin luminescence); 560 nM in data set [5]. The compound also came in with an EC50 in data set [16] (guinea pig left atria, n=2) of more than 10000 nM. In [2], the “Serotonin 5-HT2C Binding” value was determined as 11 µM. In addition, the “Sino-Atrial node beating rate, maximum increase” value in [10] is listed as “+6.2%”. The heart rate change entry was “less heart rate increases compared to formoterol” in data set [11] and “less heart rate increase compared to formoterol” in data set [15]. The “activity on α1A AR” value in data set [12] is reported as “no activity”. Also, in data set [4], the “fold less active on 5-HT2C compared to the racemate or the (S) enantiomer” value is recorded as “over 10 fold”. For the same compound, in data set [4] (5-HT2C EC50 versus β2 AR EC50 (5.6 nM)), the “fold less active on 5-HT2C compared to β2 AR agonist activity” value was found to be 50 fold. The “intrinsic efficacy on β1 AR” value in [5] (summary in words) is reported as “very low intrinsic efficacy”. Moreover, the skeletal muscle hypertrophy in data set [13] (0.01 mg/kg/day s.c. minipump, 28 days, significant) was 11%. In data set [13] (even at 0.1 mg/kg/day s.c. minipump, 28 days), the heart histopathology entry was “no findings”. For the same compound, the “skeletal muscle mass and heart mass increase (Figure 1)” value in [13] (s.c. minipump 28 days, formoterol 0.003-0.03, Compound A 0.01-0.1 mg/kg/day) is listed as “induces skeletal muscle hypertrophy with minimum impact on heart mass”. In data set [14] (compared to Formoterol, Figures 2a, 2b), the “effects on the pacemaker activity” value is “less direct effects”. Moreover, the “Automaticity, maximum increase” value in data set [14] (isolated rabbit heart, n=3) is reported as “+17%”. Moreover, the solubility in data set [6] (aqueous buffer, pH 7.0) is 50 µg/mL (≈ 116 µM); in data set [6] (pH 6.2, aqueous buffer), 270 µg/mL (≈ 627 µM); in data set [6] (pH 7.3, aqueous buffer), less than 10 µg/mL; in [6] (pH 7.8, aqueous buffer) it was less than 10 µg/mL. For the same compound, the “effects on left atrium contraction” value in data set [16] (up to 10 µM) was “no effects”.
`CCCCOc1ccc(CC(C)(C)NC[C@@H](O)c2cc(O)cc3[nH]c(=O)sc23)cc1` [Compound B]: the EC50 in [1] (Homo sapiens, Myotube) turned out to be 280 nM. The Emax was 100% in data set [1] (setting [17]), 83% in data set [3] and 99% in [4]. The “Serotonin 5-HT2C Binding” value in data set [2] stood at 0.8 µM.
